Values quoted from earlier work as cited in article PMC5766630, “Non-estrogenic Xanthohumol Derivatives Mitigate Insulin Resistance and Cognitive Impairment in High-Fat Diet-induced Obese Mice” (Scientific Reports, 2018).

Key:
mice = conditions: cited from earlier work
quinone reductase = tested on: quinone reductase; set-up: method as in PMID 10737704; conditions: cited from earlier work

COc1cc(O)c(CC=C(C)C)c(O)c1C(=O)/C=C/c1ccc(O)cc1 [XN, 3′-[3,3-dimethylallyl]-2′,4′,4-trihydroxy-6′-methoxychalcone]
Dose with no detectable toxicity (mice): at least 1,000 mg/kg
Induction of quinone reductase (quinone reductase): potent inducer
